From PMC9585581, “Developing Photoaffinity Probes for Dopamine Receptor D2 to Determine Targets of Parkinson’s Disease Drugs” (ACS Chemical Neuroscience, 2022)

Tests used:
human DRD2, long form = target: T1, human DRD2, long form (Homo sapiens, UniProt P14416); test: Intracellular Ca2+ mobilization assay (HEK293T stably expressing DRD2, chimeric G-protein Gqi5, calcium dye, confocal microscopy); assay type: cell-based; settings: for EC50: Ca assay, HEK293T stably expressing human DRD2 and chimeric G-protein, Hill slope of 1.0; for activity in calcium flux assay (in words): calcium flux bioactivity
T1 construct: expressed in transfected cells; Gqi5 chimera transiently transfected
Experimental: Intracellular calcium measurement was used to determine G-protein-mediated signaling by DRD2. Because DRD2 is linked to the G-protein subtype Gi, agonist binding inhibits adenyl cyclase activity.[42] To mitigate this effect, we created an HEK293T cell line stably expressing human DRD2, long form, and a chimeric G-protein, Gqi, which alters the DRD2 receptor’s G-protein coupling so that signaling can occur through Gq, resulting in an intracellular calcium flux.[43] The assay is performed by first loading the cell line with a calcium-sensing dye. Binding of the ligand to the receptor results in an influx of calcium to the cytoplasm, which can be characterized in real time by monitoring the increase in dye fluorescence with confocal microscopy.
Figure 2 Intracellular calcium flux assay. HEK293T cell line stably expressing constructs for human DRD2 and a chimeric G-protein is loaded with calcium-sensing dye, […]. After dosing the probe, confocal microscopy is used to determine the calcium flux in the cell by change in dye fluorescence.
A stable HEK293T-derived cell line-expressing DRD2-Strep Tag II fusion was maintained in DMEM supplemented with 10% FBS, 100 U/mL penicillin, and 100 μg/mL streptomycin in a humidified atmosphere at 37 °C in 5% CO2. On day 1, cells were plated at a density of 4 × 10^4 cells/cm^2 in a poly-D-lysine-coated 18-well chambered coverslip (Ibidi). The following day (day 2), cells were transfected with a 10× solution of 3:1 mixture of Gqi5/Optifect Transfection Reagent (Thermo) in unsupplemented DMEM. On day 3, the transfection media was removed and calcium-sensitive dye loading was performed following the protocol of the Fluo-4 Direct Calcium Assay Kit (Invitrogen). 5× drug stimulation solutions were prepared in filter-sterilized HBSS. Once Fluo-4 loading was complete, a time series acquisition at a rate of 1 fps was recorded using a Zeiss LSM 980 with Airyscan 2. Basal fluorescence was recorded for 20 s, followed by the addition of drug solution to a 1× final concentration and acquisition for an additional 40 s. Results in the form of fold fluorescence increase over basal were averaged over 50 cells in ImageJ (NIH), and GraphPad Prism was used for the analysis of data.

[1] = tested on: DRD2-expressing 293T cells vs untransduced 293T cells; test: Flow cytometry quantification of probe labeling of cells; assay type: cell-based, human; settings: probe 100 nm, photo-cross-linked, Alexa Fluor 555 azide; P < 0.0001, two-way ANOVA
Experimental: Flow cytometry was used to quantify the number of cells that were successfully labeled by probes 5 and 7 as these were the most promising biochemically and seemed to display the highest propensity for labeling DRD2-expressing cells. To perform the quantification, our 293T cell line-expressing DRD2 or unmodified 293T cells as a negative control were treated with probes at a 100 nm concentration, the lower concentration than the EC50 determination, likely due in large part to the covalent nature of the binding event versus the noncovalent EC50 assays. The probes were covalently cross-linked to the cells with UV, and the unbound probe was washed out. The azide-containing fluorescent dye was then clicked onto the probe, the unbound dye was washed out, and the cells were analyzed by flow cytometry (Figure 5a). […]
Figure 5 Flow cytometry quantification of probe labeling. […] The cells were then analyzed by flow cytometry. P values determined using two-way ANOVA in GraphPad; **** corresponds to P < 0.0001. […]
HEK293T cells and a stable HEK293T-derived cell line-expressing DRD2-Strep Tag II fusion were maintained in DMEM supplemented with 10% FBS, 100 U/mL penicillin, and 100 μg/mL streptomycin in a humidified atmosphere at 37 °C in 5% CO2. […] The cells were then washed 3 times with PBS with 5% BSA and analyzed with a BD Accuri C6 flow cytometer. […]

T1 sequence (P14416 whole entry): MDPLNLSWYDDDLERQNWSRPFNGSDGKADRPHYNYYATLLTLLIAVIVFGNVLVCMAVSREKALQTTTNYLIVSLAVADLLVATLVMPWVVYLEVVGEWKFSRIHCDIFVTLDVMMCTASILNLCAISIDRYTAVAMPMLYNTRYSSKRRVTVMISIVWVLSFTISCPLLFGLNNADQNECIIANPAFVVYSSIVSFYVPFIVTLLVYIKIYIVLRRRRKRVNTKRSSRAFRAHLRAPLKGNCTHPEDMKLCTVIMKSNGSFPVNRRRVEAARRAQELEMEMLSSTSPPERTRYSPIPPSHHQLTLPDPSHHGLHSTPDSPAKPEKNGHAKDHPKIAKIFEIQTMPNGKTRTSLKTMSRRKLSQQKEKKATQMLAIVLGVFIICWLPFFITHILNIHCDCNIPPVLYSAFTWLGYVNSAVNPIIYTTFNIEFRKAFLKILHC

Compound | EC50 (human DRD2, long form) [nM] | difference in potency of probe vs parent compound (human DRD2, long form; calcium assay, 5 vs ropinirole) [×] | activity in calcium flux assay (in words) (human DRD2, long form) | labeling of cells expressing DRD2 vs cells that do not (flow cytometry) [1]
C#CCOc1ccc(C(=O)c2ccc(CNCCc3cccc4c3CC(=O)N4)cc2)cc1 [Compound 5, 4-(2-((4-(4-(Prop-2-yn-1-yloxy)benzoyl)benzyl)amino)ethyl)indolin-2-one] | 1670 | ~10 | low micromolar potency | highly statistically significant increase in the labeling of cells expressing DRD2 over those that do not
C#CCOc1ccc(C(=O)c2ccc(CN[C@H]3CCc4nc(N)sc4C3)cc2)cc1 [Compound 7, (S)-(4-(((2-Amino-4,5,6,7-tetrahydrobenzo[d]thiazol-6-yl)amino)methyl)phenyl)(4-(prop-2-yn-1-yloxy)phenyl)methanone] | 2190 |  | low micromolar potency | highly statistically significant increase in the labeling of cells expressing DRD2 over those that do not
